How the values were obtained:
HBV = HBV infection in HepG2-NTCP cells (HBeAg AlphaLISA in supernatants); format: cell-based; details: Hepatitis B virus, 192 h; HBV infection of HepG2-NTCP cells; HBeAg in supernatants at day 8 post infection; read-out: Cellular EC50
Procedure, shortened: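 HepG2-NTCP A3 cells were pre-incubated 2 h with 3-fold serially diluted compounds, then infected with HBV at 2000 GE/cell with 4% PEG (0.5% DMSO final). After washing on day 1, cells stayed in 2.5% DMSO medium; supernatant HBeAg measured by AlphaLISA on day 8, EC50 versus DMSO controls.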

HDV [1] = test: HDV infection in primary human hepatocytes (PHHs) and RNA quantification (RT-qPCR); format: cell-based; details: Hepatocyte, 192 h, HDV infection of primary human hepatocytes, viral RNA at day 8 post infection
Source text: Primary human hepatocytes (Thermo Fisher Scientific) were thawed in Williams E Medium with CM3000 supplement pack (Thermo Fisher Scientific) and seeded at 70,000 cells/well on collagen-coated 96-well plate. Six hours post-seeding, cell medium was changed to Williams E Medium with CM4000 cell maintenance supplement pack for further culture (Thermo Fisher Scientific). HDV virus collected from the supernatants of HuH7-END cells was purified in the presence of 6% polyethylene glycol (PEG). Viral titer was then quantified by RT-qPCR using HDV specific primers against a reference standard. On the day of infection, compounds were 4-fold serially diluted in DMSO and pre-incubated with PHHs for two hours before infecting with 100 GE/cell of HDV in 4% PEG. On day one post infection, HDV-containing media was aspirated, cells were washed once with PBS and then maintained in 2.5% DMSO containing media for the remainder of the assay. Viral RNA was isolated using RNeasy kits at day 8 post infection and reverse transcribed into cDNA using High-Capacity RNA-to-cDNA Kit. Relative HDV gene expression was quantified by RT-qPCR after normalization to expression of a housekeeping gene. Irrespective of readout, compound concentrations that reduce viral RNA by 50% relative to DMSO controls (EC50) are reported. EC50 ranges are as follows: A<0.1 μM; B 0.1-1 μM; C>1 μM.

HDV [2] = test: HDV infection in HepG2-NTCP cells and RNA quantification (RT-qPCR); format: cell-based; details: 288 h; HDV infection of HepG2-NTCP cells; viral RNA by RT-qPCR at day 12 post infection; read-out: Cellular EC50
Method: HDV virus collected from the supernatants of HuH7-END cells was purified in the presence of 6% polyethylene glycol (PEG). Viral titer was then quantified by RT-qPCR using HDV specific primers against a reference standard. For HDV infection, HepG2-NTCP cells were seeded in 96-well plates at 60,000 cells/well. On the day of infection, compounds were 4-fold serially diluted in DMSO and pre-incubated with HepG2-NTCP cells for two hours before infecting with 800 GE/cell of HDV in 4% PEG. On day one post infection, HDV-containing media was aspirated, cells were washed once with PBS and then maintained in 2.5% DMSO containing media for the remainder of the assay. Viral RNA was isolated using RNeasy kits (Qiagen) at day 12 post infection and reverse transcribed into cDNA using High-Capacity RNA-to-cDNA Kit (Thermo Fisher). Relative HDV gene expression was quantified by RT-qPCR after normalization to expression of a housekeeping gene. Irrespective of readout, compound concentrations that reduce viral RNA by 50% relative to DMSO controls (EC50) are reported. EC50 ranges are as follows: A<0.1 μM; B 0.1-1 μM; C>1 μM.

NTCP = target: T1, NTCP (Homo sapiens, UniProt Q14973); test: HepG2-NTCP preS1 binding competition assay (FITC-labeled myristoylated preS1 peptide); details: HepG2-NTCP cells; competition with FITC-labeled preS1 peptide
T1 construct: expressed in transfected cells; host or cells: HepG2-NTCP (clone A3, kept under puromycin)
T1 sequence (Q14973 1-349): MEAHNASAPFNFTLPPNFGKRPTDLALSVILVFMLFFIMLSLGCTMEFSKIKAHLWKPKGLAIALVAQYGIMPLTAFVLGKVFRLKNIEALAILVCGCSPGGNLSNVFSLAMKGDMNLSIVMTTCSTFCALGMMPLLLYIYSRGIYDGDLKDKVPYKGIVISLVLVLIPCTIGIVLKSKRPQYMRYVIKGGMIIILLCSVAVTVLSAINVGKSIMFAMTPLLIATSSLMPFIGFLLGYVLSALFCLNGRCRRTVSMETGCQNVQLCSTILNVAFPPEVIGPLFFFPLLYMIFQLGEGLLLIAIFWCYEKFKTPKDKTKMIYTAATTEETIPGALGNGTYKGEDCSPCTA
Method: HepG2-NTCP preS1 Binding Competition Assay
Myristoylated preS1 peptide (2-48 aa) conjugated to a C-terminal FITC tag was synthesized to evaluate preS1 binding to NTCP-expressing cells. HepG2-NTCP cells seeded in 384-wells were pre-treated with compounds for 2 hours prior to the addition of FITC-labeled preS1 peptide. After co-incubation for 30 minutes, unbound FITC-preS1 peptide was washed twice with PBS, and the fluorescence of preS1-FITC bound to cell surface was detected by Envision plate reader. EC50 ranges are as follows: A<0.1 μM; B 0.1-1 μM; C>1 μM.

[3] = Donor 1, read-out: Cellular EC50 (μM) Donor 1
[4] = Donor 2, read-out: Cellular EC50 (μM) Donor 2

Compound: Cc1cc(-c2cc3c(cc2OCc2ccsc2)N(c2ccccc2)C[C@@H](C2CCCCC2)N(C)S3(=O)=O)sc1C(=O)O [Example 514]
- EC50 (HBV): < 100 nM
- EC50 (HDV [1]; [3]): < 0.1 µM
- EC50 (HDV [1]; [4]): < 0.1 µM

Compound: CN1[C@H](C2CCCCC2)CN(c2ccccc2)c2cc(OC3CC3)c(-c3ccc(F)c(C(=O)O)c3)cc2S1(=O)=O [Example 372]
- EC50 (HBV): < 100 nM
- EC50 (HDV [1]; [3]): < 0.1 µM

Compound: CN1[C@H](C2CCCCC2)CN(c2ccccc2)c2cc(F)c(-c3cc(F)c(C(=O)O)s3)cc2S1(=O)=O [Example 128, (R)-5-(3-cyclohexyl-7-fluoro-2-methyl-1,1-dioxido-5-phenyl-2,3,4,5-tetrahydrobenzo[f][1,2,5]thiadiazepin-8-yl)-3-fluorothiophene-2-carboxylic acid]
- EC50 (HBV): < 100 nM
- EC50 (HDV [1]; [4]): < 0.1 µM

Compound: Cc1cc(-c2cc3c(cc2Cl)N(c2ccccc2)C[C@@H](C2CCCCC2)N(C)S3(=O)=O)sc1C(=O)O [Example 126, (R)-5-(7-chloro-3-cyclohexyl-2-methyl-1,1-dioxido-5-phenyl-2,3,4,5-tetrahydrobenzo[f][1,2,5]thiadiazepin-8-yl)-3-methylthiophene-2-carboxylic acid]
- EC50 (HBV): < 100 nM
- EC50 (HDV [2]): < 100 nM

Compound: CN1[C@H](C2CCCCC2)CN(c2ccccc2)c2cc(Cl)c(-c3cc(F)c(C(=O)O)s3)cc2S1(=O)=O [Example 116, (R)-5-(7-chloro-3-cyclohexyl-2-methyl-1,1-dioxido-5-phenyl-2,3,4,5-tetrahydrobenzo[f][1,2,5]thiadiazepin-8-yl)-3-fluorothiophene-2-carboxylic acid]
- EC50 (HBV): < 100 nM
- EC50 (HDV [2]): < 100 nM
- EC50 (HDV [1]; [3]): < 0.1 µM
- EC50 (NTCP): < 100 nM

Compound: Cc1cc(-c2cc3c(cc2F)N(c2ccccc2)C[C@@H](C2CCCCC2)N(C)S3(=O)=O)sc1C(=O)O [Example 127, (R)-5-(3-cyclohexyl-7-fluoro-2-methyl-1,1-dioxido-5-phenyl-2,3,4,5-tetrahydrobenzo[f][1,2,5]thiadiazepin-8-yl)-3-methylthiophene-2-carboxylic acid]
- EC50 (HBV): < 100 nM
- EC50 (HDV [1]; [4]): < 0.1 µM
- EC50 (NTCP): < 100 nM

Compound: CN1[C@H](C2CCCCC2)CN(c2ccccc2)c2cc(Cl)c(-c3ccc(F)c(C(=O)O)c3)cc2S1(=O)=O [Example 25, (R)-5-(7-chloro-3-cyclohexyl-2-methyl-1,1-dioxido-5-phenyl-2,3,4,5-tetrahydrobenzo[f][1,2,5]thiadiazepin-8-yl)-2-fluorobenzoic acid]
- EC50 (HBV): < 100 nM
- EC50 (HDV [2]): < 100 nM
- EC50 (HDV [1]; [3]): < 0.1 µM
- EC50 (HDV [1]; [4]): 0.1 to 1 µM

Compound: CN1[C@H](C2CCCCC2)CN(c2ccccc2)c2cc(OCc3ccsc3)c(-c3ccc(F)c(C(=O)O)c3)cc2S1(=O)=O [Example 336]
- EC50 (HBV): < 100 nM
- EC50 (HDV [1]; [3]): < 0.1 µM

Compound: CCCCCCCOc1cc2c(cc1-c1ccc(F)c(C(=O)O)c1)S(=O)(=O)N(C)[C@H](C1CCCCC1)CN2c1ccccc1 [Example 353]
- EC50 (HBV): < 100 nM
- EC50 (HDV [1]; [3]): < 0.1 µM

Compound: COc1cc2c(cc1-c1ccc(F)c(C(=O)O)c1)S(=O)(=O)N(C)[C@H](C1CCCCC1)CN2c1ccccc1 [Example 348]
- EC50 (HBV): < 100 nM
- EC50 (NTCP): < 100 nM

Compound: CN1[C@H](C2CCCCC2)CN(c2ccccc2)c2cc(OC3CCC3)c(-c3ccc(F)c(C(=O)O)c3)cc2S1(=O)=O [Example 376]
- EC50 (HBV): < 100 nM
- EC50 (HDV [1]; [3]): < 0.1 µM

Compound: CN1[C@H](C2CCCCC2)CN(c2ccccc2)c2cc(Cl)c(-c3cc(NC(=O)OCC(F)F)c(C(=O)O)s3)cc2S1(=O)=O [Example 242]
- EC50 (HBV): < 100 nM
- EC50 (NTCP): < 100 nM

Compound: CN1[C@H](C2CCCCC2)CN(c2ccccc2)c2cc(Cl)c(N3CCC(F)(C(=O)O)C3)cc2S1(=O)=O (mixture of isomers) [Example 609, 1-((R)-7-chloro-3-cyclohexyl-2-methyl-1,1-dioxido-5-phenyl-2,3,4,5-tetrahydrobenzo[f][1,2,5]thiadiazepin-8-yl)-3-fluoropyrrolidine-3-carboxylic acid]
- EC50 (HBV): < 100 nM
- EC50 (NTCP): < 100 nM

Compound: CCCCCN1C[C@@H](C2CCCCC2)N(C)S(=O)(=O)c2cc(-c3ccc(F)c(C(=O)O)c3)c(Cl)cc21 [Example 323]
- EC50 (HBV): < 100 nM
- EC50 (NTCP): < 100 nM

— patent publication US20240368096A1 (Enanta Pharmaceuticals, Inc., priority 2022, published 2024)
